Structures can show the parent of a compound that is named as a salt.

In the test the test system is cerebrocortical cat brain tissue slices. Briefly: In vitro Cerebrocortical Cat Brain Tissue Slice Assay (inhibition of HCO3^- -stimulated swelling). The conditions noted are these: 60 minutes, 37° C., 10 mM HCO3^-, 27 mM K^+. As for the experimental part: See, e.g., Bourke et al., Neurochem. Res., 8, 5 (1983), and Cragoe et al., J. Med. Chem., 25, 567 (1982).
Adult cats of 2-3 kg body weight were employed in tissue slice studies. Prior to sacrifice, the animals were anesthetized with ketamine hydrochloride, 10 mg/kg intramuscularly. Eight (three control, five experimental) pial surface cerebrocortical tissue slices (0.5 mm thick; approximately 150 mg initial fresh weight) were cut successively with a calibrated Stadie-Riggs fresh tissue microtome without moistening and weighed successively on a torsion balance. During the slice preparation all operations except weighing were confined to a humid chamber. Each slice was rapidly placed in an individual Warburg flask containing 2 ml of incubation medium at room temperature. The basic composition of the incubation media was as follows: glucose, 10 mM; CaCl2, 1.3 mM; MgSO4, 1.2 mM; KHSO4, 1.2 mM; HEPES (N-2-hydroxyethylpiperazine-N'-2-ethanesulfonic acid, titrated with NaOH to pH 7.4), 20 mM. Except when adding HCO3^-, the osmolarity of the media was maintained isosmotic (approximately 285 mOsm/L) by reciprocal changes of Na^+ or K^+ to achieve a concentration of K^+ of 27 mM. The basic medium was saturated with oxygen by bubbling pure oxygen through the solution for 30 minutes before use. […]
Following the 60-minute incubation period, tissue slices were separated from incubation medium by filtration, reweighed, and homogenized in 1N HClO4 (10% w/v) for electrolyte analysis. […] Control slice swelling is expressed as microliters per gram initial preswelling fresh weight. The effectiveness of an inhibitor at a given concentration was measured by the amount of HCO3^- -stimulated swelling that occurred in its presence, computed as a percent of the maximum possible and is reported as an IC50. […] Tissue and media Na^+ and K^+ levels were determined by emission flame photometry with Li^+ internal standard; Cl^- levels were determined by amperometric titration. Tissue viability during incubation is monitored by manometry.

The term IC50 denotes the midpoint of a concentration-inhibition curve. Under “hydrate”, `CC1(C2CCCC2)Cc2cc(OCC(=N)N)c(Cl)c(Cl)c2C1=O` (single isomer, unassigned; (-)) [Example 7, (-)[(2-Cyclopentyl-6,7-dichloro-2,3-dihydro-2-methyl-1-oxo-1H-inden-5-yl)oxy]ethanimidamide hydrochloride 1/4 hydrate] showed an IC50 of 5 nM.
`CC1(C2CCCC2)Cc2cc(OCC(=N)N)c(Cl)c(Cl)c2C1=O` (stereo not drawn) [Example 2, [(2-Cyclopentyl-6,7-dichloro-2,3-dihydro-2-methyl-1-oxo-1H-inden-5-yl)oxy]ethanimidamide hydrochloride hemihydrate] displayed an IC50 (Felis catus, 1 h) of 10 nM.
`CC1(C2CCCC2)Cc2cc(OCC(=N)N)c(Cl)c(Cl)c2C1=O` (single isomer, unassigned; (+)) [Example 6, (+)[(2-Cyclopentyl-6,7-dichloro-2,3-dihydro-2-methyl-1-oxo-1H-inden-5-yl)oxy]ethanimidamide hydrochloride 1/4 hydrate] yielded a concentration for half-maximal inhibition (IC50) (hydrate) of 100 nM.

The values above are taken from US4775695A, “Substituted amidinoalkoxy and amidinoalkylamino indanones and salts thereof” (Merck & Co., Inc., priority 1987, dated 1988).
